The values that follow come from a melting point compilation (Tetko et al.; mined from patent text by program, amines drawn as free bases though some values may be those of a salt).

SMILES strings stand for the structures.

In general, melting point refers to the temperature, or range, at which the solid turns liquid.

In turn, `Cc1cccc(-c2nc3cccnn3c2-c2ccnc(NCC(C)(C)C)c2)c1` yielded a melting point of 157 to 158 °C. `CCCCC(=O)Nc1ccc(-c2ccc(-c3ccccc3Cl)n2Cc2cccc(N)n2)cc1` displayed a melting point of 145 to 150 °C. As for `CN(C)C(=S)N1C=CC=NC1N` (stereo not drawn), the figure is 134 to 136 °C; as for `CCCCCCc1cc2c(s1)-n1c(C)nnc1CN=C2c1ccc(C)c(C)c1`, 98 to 100 °C.

For the molecule `CC(C)(C)c1cc(CCC(=O)O)cc2c1OC(=O)C2`, the melting point was in the range of 167 to 169 °C. As for `CCC(CC)c1nn(-c2ccc(Cl)cn2)cc1CCCOc1c(CC(=O)O)cccc1OC`, the figure is 85 to 86 °C; as for `Cc1cc(Cl)cc(C(=O)N(Cc2ccccc2)C2(C)CNC2)c1NC(=O)c1cc(C(F)(F)F)nn1-c1ncccc1Cl`, 127 to 130 °C; as for `COc1ccc(C(O)(Cc2ccncc2)c2ccccc2)c2c1OC(C)(C)C2` (stereo not drawn), 78 to 81 °C. The value for `Cc1ccc(S(=O)(=O)OCC2CCc3ncsc3C2)cc1` (stereo not drawn) was 90 to 91 °C; that for `CCc1ccc2ncc(NC(=O)C=Cc3cc(OC)c(OC(C)=O)c(OC)c3)c(-c3ccccc3Cl)c2c1` was 136 to 137 °C; that for `CC1(C)CCOc2ccc(C3(C)C=CC=CC3C=O)cc21` (stereo not drawn) was 85 to 86 °C. As for `Cc1cc(-c2cscn2)ccc1-c1cc(C(F)(F)F)nn1-c1ccc(S(C)(=O)=O)c(F)c1`, the figure is 132 °C; as for `OCc1cc(-c2ccc3nnn(Cc4ccc5ncccc5c4)c3n2)cs1`, 188 to 191 °C; as for `Cc1cccc(-c2nc(C3CCN(C)CC3)sc2-c2ccnc(NC(=O)c3ccccc3)c2)c1`, 151 to 152 °C. The molecule `COC(=O)COc1ccc(OCC(=O)OC)cc1` gave a melting point of 96 to 98 °C. `NC(N)=Nc1nc(-c2cccc(CSc3nc4ccccc4[nH]3)n2)cs1`: the melting point lay in the range of 209 to 211 °C. The value for `CNC(=O)Cc1ccc2ccn(C3CCN(CCc4ccc(F)cc4)CC3)c2c1` was 149 to 150 °C. The molecule `CN(C)CCC(=O)Nc1ccc2[nH]c3ccc(NC(=O)CCN(C)C)cc3c(=O)c2c1` came in with a melting point above 320 °C. As for `CCCCNC(=S)Nc1ccccc1N1CCOCC1`, the figure is 105 °C; as for `CCOC(=O)C(=CNc1cc(C)nc(-c2ccncc2)n1)C(=O)OCC`, 169 to 171 °C; as for `CC(=O)c1ccc(NC2=Nc3ccc(Cl)cc3CS2)cc1`, 174 to 175 °C. Turning to `COc1cc(C)cc(OC)c1C(=O)c1ccccc1N(C)C(=O)CBr`, the melting point was 121 °C. As for `CC(=O)NC(=O)CSC(C)=O`, the figure is 140 to 142 °C.

With `O=C(NO)c1ccc2c(c1)CCN(C(=O)NCCc1c[nH]c3ccccc13)C2`, the melting point was 173 to 176 °C. As for `N=C(Nc1ccccc1CN1CCOCC1)N1CCOCC1`, the melting point fell in the range of 118 to 119 °C.

As for `CC(CCCO[Si](C)(C)C(C)(C)C)C1CCC2C3CC=C4C(C)(C)C(O[Si](C)(C)C(C)(C)C)CCC4(C)C3CCC12C` (stereo not drawn), the melting point lay within 161 to 162 °C.

Consider `CC(=O)NC[C@H]1CN(c2ccc(N3CCS(=O)(=O)CC3)c(F)c2)C(=O)O1`, for which the melting point lay in the range of 202 to 203 °C. Take `CC(C)(C)OC(=O)N1CCN(C(=O)c2ccc3n2Cc2ccccc2N(C(=O)C2=CC=C(c4ccccc4)C(C)(C(F)(F)F)C2)C3)CC1` (stereo not drawn): the melting point lay in the range of 104 to 121 °C. As for `CC(C)CNc1sc(-c2cc[nH]n2)c2c1C(=O)CC(C)(C)C2`, the figure is 208 to 210 °C.

Turning to `Clc1ccc2[nH]cc(C3=CCNCC3)c2c1`, the melting point turned out to be 177 °C. Turning to `CCOC(=O)CNC(=O)c1cc(Cl)ccc1N`, the melting point fell in the range of 108 to 110 °C. As for `FC(F)(F)c1ccc2c(c1)SSSSS2`, the figure is 44 to 50 °C; as for `N#Cc1cc(F)c(-n2cnc(C(F)(F)F)cc2=O)cc1F`, 95 °C.

Molecule `CCCCCCCCCCCCCCCCOc1cc(C(=O)OCC)cc(C(=O)OCC)c1` came in with a melting point of 45 °C. As for `Cn1c(=O)c(-c2ccc(Cl)cc2Cl)cc2c3cc(-c4c[nH]nc4N)ccc3n(C)c21`, the figure is 240 to 245 °C.

For the molecule `Cc1nc2cc3c(cc2s1)C1(CO3)C(=O)N(Cc2ccccn2)c2ccccc21` (stereo not drawn), the melting point fell in the range of 249 to 250 °C.

In turn, `NC(=O)Nc1ccc(C(O)(C(F)(F)F)C(F)(F)F)cc1` had a melting point of 176 to 179 °C. Consider `COc1ccc2c(c1)C(OC(C)C)=C(C(N)=O)S2=O` (stereo not drawn), for which the melting point fell in the range of 168 to 170 °C.

`Cc1cc(CNC2CCCN(C(=O)c3ccc(Nc4nccc(Nc5ccc(F)cc5)n4)cc3)C2)no1` (stereo not drawn) came in with a melting point of 190 to 191 °C. `CCOCCNS(=O)(=O)NC(=O)OCc1ccc(OCCOC)cc1Oc1ncc(C(F)(F)F)cc1Cl` displayed a melting point of 142 to 143 °C. As to `CC(C)(SCc1cc2cc(C(F)(F)F)ccc2n1S(=O)(=O)c1ccccc1)C(=O)O`, the melting point was 90 °C. As for `Oc1ccc(-c2ncco2)cc1`, the figure is 167 to 168 °C.

Turning to `CCC(CC)N(Cc1ccc(S(C)(=O)=O)cc1)S(=O)(=O)c1ccc(Cl)cc1`, the melting point was 166 to 168 °C. As for `O=c1[nH]c2c(c(=O)[nH]1)N=CCN2CCCCN1CCC(OC(c2ccccc2)c2ccccc2)CC1`, the figure is 157 to 159 °C; as for `COC(=O)C(=O)Nc1cc(OCCCOc2ccc(C(C)=O)c(O)c2CCC(F)(F)F)c(Br)cc1C`, 139 to 140 °C.

For `O=C1NC2c3ccccc3CC2O1` (stereo not drawn), the melting point lay within 94 to 95 °C. The value for `C=CC1CCC2C3CC(=O)C4=CC(=O)CCC4(C)C3CCC12C` (stereo not drawn) was 114 to 120 °C. Take `C=CCn1c(=O)c2c(nc(/C=C/c3cc(OC)c(OC)c(OC)c3)n2C)n(CC=C)c1=O`: the melting point was 189 to 191 °C.

`CCCC(=O)NCCc1c[nH]c2ccc3c(c12)CCCO3` yielded a melting point of 91 to 93 °C. The value for `O=C(CCC(F)(F)F)c1c(O)c2cccnc2n(-c2ccccc2)c1=O` was 217 to 220 °C.

Consider `CCN(C)C(C)CN1CCc2c(c(=O)oc3cc(OC)ccc23)C1` (stereo not drawn), for which the melting point lay within 102 to 104 °C. As for `Cc1ccc(-c2nc(Cc3cccc(C=O)c3)c(C)o2)cc1`, the figure is 98 to 99 °C; as for `O=C(NCCCOc1ccccn1)c1cccs1`, 91 to 92 °C; as for `CCN(CC)C(=O)n1ccc(Sc2cccc(C)c2)n1`, 96 to 98 °C. As for `CCCCCC(=O)CCC(=O)O`, the figure is 67 to 68 °C; as for `CCCCCCc1cnn(-c2ccccn2)c1O`, 37 to 38 °C. The value for `COc1c(C)c(C)c(OC)c(C(O)(c2cccnc2)C2CCCCC2)c1C` (stereo not drawn) was 134 to 135 °C; that for `COc1ccc(Br)cc1N(C=NCl)C1CC1` was 185 °C. As to `CCOC(=O)c1ccc(SCCCC2CCN(c3ccc(Cl)nn3)CC2)cc1`, the melting point came out at 96.3 °C. The value for `c1ccc2c(c1)Cn1cccc1CN2` was 145 to 148 °C. As for `CC(C)c1ccc2c(c1)c(-c1ccccc1Cl)c(NC(=O)Nc1cccc(C(F)(F)F)c1)c(=O)n2C`, the figure is 209 to 210 °C; as for `CC(C)(C)C1=CC(=Nc2ccc(C(=O)O)cc2)C=C(C(C)(C)C)C1=O`, 305 to 309 °C; as for `c1ccc(CNn2cccc2)cc1`, 39 to 41 °C. The value for `Cc1cnc(N2CCN(CC[C@H]3CC[C@H](NC(=O)CC4CCOCC4)CC3)CC2)c2c1OCC2` was 199 °C; that for `Fc1ccc(NC(=S)NN(c2ccccc2)c2ccccc2)cc1` was 200 °C. As for `Nc1ccccc1Cc1n[nH]c(Cl)n1`, the melting point was in the range of 162 to 165 °C. As for `CC(=O)N[C@@H]1[C@@H](CCO)CC(C(=O)O)=C[C@H]1OC(C)C`, the figure is 114 to 115 °C; as for `OCCC1c2ccccc2C(O)=NN1c1cccc(C(F)(F)F)c1` (stereo not drawn), 183 to 184 °C; as for `CC(C)(C)OC(=O)N1CCNC(=O)C1Sc1ccccc1` (stereo not drawn), 138 to 140 °C. The value for `CC(C)(C)c1csc(-c2cc3cc(Cn4c(C(N)=O)cc5ccccc54)ccc3o2)n1` was 151 to 152 °C; that for `COC(=O)C(NS(=O)(=O)c1ccc(-c2ccc(NC(=O)c3cc4c(OC(C)C)cccc4o3)cc2)cc1)C(C)C` (stereo not drawn) was 226 to 229 °C.

Turning to `CC(C)(C)Oc1c(-c2ccc(S(C)(=O)=O)cc2)cnn(-c2cccc(Cl)c2)c1=O`, the melting point lay in the range of 232 to 235 °C. The value for `CSCC(=O)Nc1cc(SCC(C)C)ccc1[N+](=O)[O-]` was 73 to 74 °C; that for `C=CCn1c(NC)nn(C(=O)Nc2ccccc2)c1=S` was 132 to 133 °C. On to `COC(=O)c1ccc(CCN(C)CCCC(C#N)(c2cccc(C(=O)OC)c2)C(C)C)cc1` (stereo not drawn), for which the melting point was 108 to 112 °C. The value for `Fc1ccc2occ(CCN3CCN(c4cccc5cccnc45)CC3)c2c1` was 54 °C. As for `O=C(/C=C/C=C/c1ccccc1Cl)NCCCCCC(=O)NO`, the figure is 129 to 131 °C; as for `CCCCOC(=O)[C@H]1CN(c2ccc(C3CCSCC3)c(F)c2)C(=O)O1`, 98 to 100 °C; as for `COc1ncnc(-c2cc(NS(C)(=O)=O)c(C#N)cc2F)c1C`, 218 to 220 °C. As for `CC(C)(C)OC(=O)N1CCC(Oc2c(F)cc3c(=O)c(C(=O)O)cn(C4CC4)c3c2F)C1` (stereo not drawn), the melting point lay in the range of 158 to 160 °C. The value for `O=c1[nH]c2cc(C(F)(F)F)ccc2n1-c1cc(C(F)(F)F)cc([N+](=O)[O-])c1O` was above 360 °C; that for `COc1nc(OC)c(SC)c(OC)n1` was 90.5 to 91 °C. The value for `CNS(=O)(=O)C(=O)CCOc1cc(Oc2nn(C)c(C(F)(F)F)c2Cl)ccc1[N+](=O)[O-]` was 170 to 172 °C; that for `CCOC(=O)c1cnc(Nc2cc(OC)c(OC)c(OC)c2)nc1-c1ccccc1` was 64 to 65 °C; that for `CCCOCCOc1ccc(-c2ccc3c(c2)C=C(C(=O)O)CCS3(=O)=O)cc1` was 176 to 179 °C. The value for `N#Cc1cc(NC(=O)c2csc3c2CCCC3)ccc1N1CCC(O)CC1` was 172 to 173 °C. The molecule `CCCCc1nc2c(N)nc3ccccc3c2n1CCCNC(=O)OC(C)(C)C` came in with a melting point of 193 °C. `C[C@@H](c1ccc(C(=O)N(C)NC(N)=S)cc1)[C@](O)(Cn1cncn1)c1ccc(F)cc1F` gave a melting point of 172 to 173 °C.
